# Results from paper PMC10482975 (Nature Communications, 2023).
# Like-named read-outs stand apart in the source and are kept apart here.
# Target: T1, M4 mAChR (Homo sapiens, UniProt P08173)
# T1 sequence (P08173 1-479): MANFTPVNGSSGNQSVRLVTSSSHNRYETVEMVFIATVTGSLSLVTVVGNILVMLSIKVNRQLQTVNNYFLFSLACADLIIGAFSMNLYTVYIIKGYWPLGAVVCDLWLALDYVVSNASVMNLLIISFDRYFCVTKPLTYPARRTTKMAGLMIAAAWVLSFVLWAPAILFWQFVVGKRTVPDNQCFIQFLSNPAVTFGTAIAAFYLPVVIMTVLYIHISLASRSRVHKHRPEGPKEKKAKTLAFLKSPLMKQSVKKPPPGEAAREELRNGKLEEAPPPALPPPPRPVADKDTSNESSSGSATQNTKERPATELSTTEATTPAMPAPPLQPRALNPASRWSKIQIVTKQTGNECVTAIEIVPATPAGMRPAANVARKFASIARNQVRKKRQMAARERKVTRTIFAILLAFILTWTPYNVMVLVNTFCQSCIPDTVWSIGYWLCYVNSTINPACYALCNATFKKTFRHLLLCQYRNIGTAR
# Experiment: biochemical
# Conditions: read-out: [3H]-NMS binding remaining (0 min = 100), MEAN, M4 mAChR; for remaining activity at 0.1 µM: 0.1 μM Xano alone; for remaining activity at 1 µM: 1 μM Xano alone; for remaining activity at 10 µM: 10 μM Xano alone
structure (smiles),measurement,setting,value
CCCCCCOc1nsnc1C1=CCCN(C)C1 [xanomeline],remaining activity at 0.1 µM,"0.5 h, 30 min",90.3%
same,remaining activity at 1 µM,"0.5 h, 30 min",87.3%
same,remaining activity at 100 µM,"0.5 h, 10 μM Atropine + 100 μM Xanomeline, 30 min",85.1%
same,remaining activity at 10 µM,"0.5 h, 30 min",77.6%
same,remaining activity at 100 µM,"0.5 h, 100 μM Xano alone, 30 min",85.7%
same,remaining activity at 0.1 µM,"1 h, 60 min",94.4%
same,remaining activity at 1 µM,"1 h, 60 min",76.8%
same,remaining activity at 100 µM,"1 h, 10 μM Atropine + 100 μM Xanomeline, 60 min",69.6%
same,remaining activity at 10 µM,"1 h, 60 min",61%
same,remaining activity at 100 µM,"1 h, 100 μM Xano alone, 60 min",73.5%
same,remaining activity at 0.1 µM,"1.5 h, 90 min",98.4%
same,remaining activity at 1 µM,"1.5 h, 90 min",74.4%
same,remaining activity at 100 µM,"1.5 h, 10 μM Atropine + 100 μM Xanomeline, 90 min",64.1%
same,remaining activity at 10 µM,"1.5 h, 90 min",50.9%
same,remaining activity at 100 µM,"1.5 h, 100 μM Xano alone, 90 min",62.6%
same,remaining activity at 0.1 µM,"2 h, 120 min",94.7%
same,remaining activity at 1 µM,"2 h, 120 min",64.9%
same,remaining activity at 100 µM,"2 h, 10 μM Atropine + 100 μM Xanomeline, 120 min",52.9%
same,remaining activity at 100 µM,"2 h, 100 μM Xano alone, 120 min",61.2%
same,remaining activity at 0.1 µM,"3 h, 180 min",92.1%
same,remaining activity at 1 µM,"3 h, 180 min",60.5%
same,remaining activity at 10 µM,"3 h, 180 min",32.7%
same,remaining activity at 100 µM,"3 h, 100 μM Xano alone, 180 min",46.6%
same,remaining activity at 0.1 µM,"5 h, 300 min",89.8%
same,remaining activity at 1 µM,"5 h, 300 min",57.5%
same,remaining activity at 100 µM,"5 h, 10 μM Atropine + 100 μM Xanomeline, 300 min",26.7%
same,remaining activity at 10 µM,"5 h, 300 min",17.9%
same,remaining activity at 100 µM,"5 h, 100 μM Xano alone, 300 min",34.6%
